Results published in ChEMBL document CHEMBL1201862, “PubChem BioAssay data set” (2004).
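Dose response: 5 concentrations. Exposure: 48 h. Format: 96-well plates. Endpoint: linear interpolation; highest concentration if not reached. Here, GI50 denotes the concentration required for 50% inhibition of growth.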 Active and inactive are the calls of the source. Cut-off read from the data, not from the text of the source: active = GI50 up to about 1.1 µM and inactive = higher.

What was measured:
Experiment in all cases: growth of human tumour cells (NCI), 48 h
[1] = tested on: U-251
[2] = tested on: 786-0
[3] = tested on: SN12C
[4] = tested on: SF-268
[5] = tested on: M14
[6] = tested on: NCI/ADR-RES
[7] = tested on: A549
[8] = tested on: MDA-N
[9] = tested on: RXF 393
[10] = tested on: SK-MEL-28
[11] = tested on: KM12
[12] = tested on: SW-620
[13] = tested on: HCT-116
[14] = tested on: RPMI-8226
[15] = tested on: BT-549
[16] = tested on: HOP-92
[17] = tested on: NCI-H460
[18] = tested on: OVCAR-5
[19] = tested on: SR
[20] = tested on: SK-MEL-5
[21] = tested on: SNB-75
[22] = tested on: SF-295
[23] = tested on: EKVX
[24] = tested on: MDA-MB-231
[25] = tested on: LOX IMVI
[26] = tested on: HCT-15
[27] = tested on: HL-60
[28] = tested on: OVCAR-3
[29] = tested on: DU-145
[30] = tested on: SNB-19
[31] = tested on: Malme-3M
[32] = tested on: HOP-62
[33] = tested on: UO-31
[34] = tested on: CAKI-1
[35] = tested on: MOLT-4
[36] = tested on: Hs-578T
[37] = tested on: OVCAR-8
[38] = tested on: HCC 2998
[39] = tested on: K562
[40] = tested on: SF-539
[41] = tested on: TK-10
[42] = tested on: SK-MEL-2
[43] = tested on: PC-3
[44] = tested on: HT-29
[45] = tested on: T47D
[46] = tested on: NCI-H23
[47] = tested on: OVCAR-4
[48] = tested on: IGROV-1
[49] = tested on: A498
[50] = tested on: ACHN
[51] = tested on: SK-OV-3
[52] = tested on: MCF7
[53] = tested on: NCI-H522
[54] = tested on: UACC-257
[55] = tested on: UACC-62
[56] = tested on: NCI-H226
[57] = tested on: MDA-MB-435
[58] = tested on: COLO 205
[59] = tested on: CCRF-CEM

## CC1CC(C)CN(S(=O)(=O)c2cc(Cl)c(Oc3ccc([N+](=O)[O-])cc3Cl)c(Cl)c2)C1 (stereo not drawn)
[1]
  GI50: > 100 µM (inactive)
[2]
  GI50: > 100 µM (inactive)
[3]
  GI50: > 100 µM (inactive)
[4]
  GI50: > 100 µM (inactive)
[5]
  GI50: > 100 µM (inactive)
[6]
  GI50: > 100 µM (inactive)
[7]
  GI50: > 100 µM (inactive)
[8]
  GI50: > 100 µM (inactive)
[9]
  GI50: > 100 µM (inactive)
[10]
  GI50: > 100 µM (inactive)
[11]
  GI50: > 100 µM (inactive)
[12]
  GI50: > 100 µM (inactive)
[13]
  GI50: > 100 µM (inactive)
[14]
  GI50: > 100 µM (inactive)
[15]
  GI50: > 100 µM (inactive)
[16]
  GI50: > 100 µM (inactive)
[17]
  GI50: > 100 µM (inactive)
[18]
  GI50: > 100 µM (inactive)
[19]
  GI50: > 100 µM (inactive)
[20]
  GI50: > 100 µM (inactive)
[21]
  GI50: > 100 µM (inactive)
[22]
  GI50: > 100 µM (inactive)
[23]
  GI50: > 100 µM (inactive)
[24]
  GI50: > 100 µM (inactive)
[25]
  GI50: > 100 µM (inactive)
[26]
  GI50: > 100 µM
[27]
  GI50: > 100 µM (inactive)
[28]
  GI50: > 100 µM (inactive)
[29]
  GI50: > 100 µM (inactive)
[30]
  GI50: > 100 µM (inactive)
[31]
  GI50: > 100 µM (inactive)
[32]
  GI50: > 100 µM (inactive)
[33]
  GI50: > 100 µM (inactive)
[34]
  GI50: > 100 µM (inactive)
[35]
  GI50: > 100 µM (inactive)
[36]
  GI50: > 100 µM (inactive)
[37]
  GI50: > 100 µM (inactive)
[38]
  GI50: > 100 µM (inactive)
[39]
  GI50: > 100 µM (inactive)
[40]
  GI50: > 100 µM (inactive)
[41]
  GI50: > 100 µM (inactive)
[42]
  GI50: > 100 µM (inactive)
[43]
  GI50: > 100 µM (inactive)
[44]
  GI50: > 100 µM (inactive)
[45]
  GI50: > 100 µM (inactive)
[46]
  GI50: > 100 µM (inactive)
[47]
  GI50: > 100 µM (inactive)
[48]
  GI50: > 100 µM (inactive)
[49]
  GI50: > 100 µM (inactive)
[50]
  GI50: > 100 µM (inactive)
[51]
  GI50: > 100 µM (inactive)
[52]
  GI50: > 100 µM (inactive)
[53]
  GI50: > 100 µM (inactive)
[54]
  GI50: > 100 µM (inactive)
[55]
  GI50: > 100 µM (inactive)
[56]
  GI50: > 100 µM (inactive)
[57]
  GI50: > 100 µM (inactive)
[58]
  GI50: > 100 µM (inactive)

## O=c1c2ccccc2[se]n1-c1cccnc1
[1]
  GI50: 26.7 µM (inactive)
[2]
  GI50: 31.4 µM (inactive)
[3]
  GI50: 29.6 µM (inactive)
[4]
  GI50: 27 µM (inactive)
[5]
  GI50: 30.7 µM (inactive)
[6]
  GI50: 33.5 µM (inactive)
[7]
  GI50: 40.6 µM (inactive)
[8]
  GI50: 22.6 µM (inactive)
[9]
  GI50: 29.2 µM (inactive)
[10]
  GI50: 24.7 µM (inactive)
[11]
  GI50: 79.3 µM (inactive)
[12]
  GI50: 29 µM (inactive)
[13]
  GI50: 30.5 µM (inactive)
[14]
  GI50: 34.5 µM (inactive)
[15]
  GI50: 31.3 µM (inactive)
[16]
  GI50: 15.9 µM (inactive)
[17]
  GI50: 53.6 µM (inactive)
[18]
  GI50: 46.2 µM (inactive)
[19]
  GI50: 34.7 µM (inactive)
[20]
  GI50: 12.9 µM (inactive)
[21]
  GI50: 18.1 µM (inactive)
[22]
  GI50: 31.9 µM (inactive)
[23]
  GI50: 33.4 µM (inactive)
[24]
  GI50: 25.1 µM (inactive)
[25]
  GI50: 24.5 µM (inactive)
[26]
  GI50: 23.6 µM
[27]
  GI50: 30.1 µM (inactive)
[28]
  GI50: 29.1 µM (inactive)
[29]
  GI50: 18.2 µM (inactive)
[30]
  GI50: 49.4 µM (inactive)
[31]
  GI50: 21.7 µM (inactive)
[32]
  GI50: 24.9 µM (inactive)
[33]
  GI50: 35.2 µM (inactive)
[34]
  GI50: 42.3 µM (inactive)
[35]
  GI50: 31.3 µM (inactive)
[36]
  GI50: 20.1 µM (inactive)
[37]
  GI50: 24.9 µM (inactive)
[38]
  GI50: 11.4 µM (inactive)
[39]
  GI50: 40.6 µM (inactive)
[40]
  GI50: 21.9 µM (inactive)
[41]
  GI50: 24.2 µM (inactive)
[42]
  GI50: 19.3 µM (inactive)
[43]
  GI50: 22.3 µM (inactive)
[44]
  GI50: 43.8 µM (inactive)
[45]
  GI50: 21.7 µM (inactive)
[46]
  GI50: 21.4 µM (inactive)
[47]
  GI50: 36.2 µM (inactive)
[48]
  GI50: 19.8 µM (inactive)
[49]
  GI50: 24.7 µM (inactive)
[50]
  GI50: 28.1 µM (inactive)
[51]
  GI50: > 100 µM (inactive)
[52]
  GI50: 29.4 µM (inactive)
[53]
  GI50: 20.7 µM (inactive)
[54]
  GI50: 23.4 µM (inactive)
[55]
  GI50: 13 µM (inactive)
[56]
  GI50: 28.4 µM (inactive)
[57]
  GI50: 22.2 µM (inactive)
[58]
  GI50: 20 µM (inactive)

## CC(C)C1=C2CCC3(C)C(CCC4C5C6OCC5(CCC6(C)C)CCC43C)C2(C)CC1 (stereo not drawn)
[1]
  GI50: 19.1 µM (inactive)
[2]
  GI50: 17.7 µM (inactive)
[3]
  GI50: 15 µM (inactive)
[4]
  GI50: 28.8 µM (inactive)
[5]
  GI50: 17.4 µM (inactive)
[6]
  GI50: 18.9 µM (inactive)
[7]
  GI50: 17.3 µM (inactive)
[8]
  GI50: 13.7 µM (inactive)
[9]
  GI50: 20.6 µM (inactive)
[10]
  GI50: 17.8 µM (inactive)
[11]
  GI50: 16.9 µM (inactive)
[12]
  GI50: 22.5 µM (inactive)
[13]
  GI50: 18.8 µM (inactive)
[14]
  GI50: 13.6 µM (inactive)
[15]
  GI50: 22.4 µM (inactive)
[16]
  GI50: 18.6 µM (inactive)
[17]
  GI50: 14 µM (inactive)
[18]
  GI50: 33 µM (inactive)
[19]
  GI50: 11.3 µM (inactive)
[20]
  GI50: 21.8 µM (inactive)
[22]
  GI50: 19.7 µM (inactive)
[23]
  GI50: 19.1 µM (inactive)
[24]
  GI50: 20 µM (inactive)
[25]
  GI50: 14.4 µM (inactive)
[59]
  GI50: 12.3 µM (inactive)
[26]
  GI50: 19.1 µM
[27]
  GI50: 8.81 µM (inactive)
[28]
  GI50: 21.3 µM (inactive)
[29]
  GI50: 20.2 µM (inactive)
[30]
  GI50: 29.1 µM (inactive)
[31]
  GI50: 20.8 µM (inactive)
[32]
  GI50: 18.1 µM (inactive)
[33]
  GI50: 18.1 µM (inactive)
[34]
  GI50: 20 µM (inactive)
[35]
  GI50: 16.3 µM (inactive)
[36]
  GI50: 22.8 µM (inactive)
[37]
  GI50: 17.7 µM (inactive)
[38]
  GI50: 18.8 µM (inactive)
[40]
  GI50: 16.9 µM (inactive)
[41]
  GI50: 16.7 µM (inactive)
[42]
  GI50: 29.6 µM (inactive)
[43]
  GI50: > 10 µM (inactive)
[44]
  GI50: 17.7 µM (inactive)
[45]
  GI50: 27 µM (inactive)
[46]
  GI50: 21.3 µM (inactive)
[47]
  GI50: 25.3 µM (inactive)
[48]
  GI50: 13.1 µM (inactive)
[49]
  GI50: 20.4 µM (inactive)
[50]
  GI50: 20 µM (inactive)
[51]
  GI50: 58.1 µM (inactive)
[52]
  GI50: 23.4 µM (inactive)
[53]
  GI50: 18.8 µM (inactive)
[54]
  GI50: 18.1 µM (inactive)
[55]
  GI50: 17.7 µM (inactive)
[56]
  GI50: 33.7 µM (inactive)
[57]
  GI50: 17.4 µM (inactive)
[58]
  GI50: 16.7 µM (inactive)
